Reference: US20230104936A1, “TRPML MODULATORS” (Casma Therapeutics, Inc., priority 2019, published 2023)
Where a name gives a salt, the structure may show the parent alone.

Each compound was assayed on TFEB (assay: TFEB nuclear translocation assay, HeLa wt cells). Details: Homo sapiens, HeLa, 2 h, 2 hrs compound treatment, Table 1 does not say HeLa wt or TRPML1 KO.
Type: cell-based
How it was run: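 HeLa wt or TRPML1 KO cells treated 2 hrs with compounds at 37° C, fixed in 4% PFA, immunostained with anti-TFEB plus Alexa 488 secondary and Hoechst. Imaged at ×20, four fields/well; read-out is nuclear/perinuclear-ring TFEB intensity ratio, reported as AC50.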

Question: Which AC50 does the source give for CC(C)(C)S(=O)(=O)c1ccc(S(=O)(=O)Nc2cccc(Cl)c2N2CCOCC2)cc1 [Compound A-278, N-[3-chloro-2-(morpholin-4-yl)phenyl]-4-(2-methylpropane-2-sulfonyl)benzene-1-sulfonamide] here?
Answer: ≥ 10 µM

Question: For CN(C)S(=O)(=O)c1ccc(S(=O)(=O)Nc2ccccc2N2CCC(c3ccccc3-c3nnn[nH]3)CC2)cc1 [Compound A-280, N1,N1-dimethyl-N4-(2-{4-[2-(1H-1,2,3,4-tetrazol-5-yl)phenyl]piperidin-1-yl}phenyl)benzene-1,4-disulfonamide], which AC50 is on record?
Answer: ≥ 10 µM

Question: For CN(C)C1CCCC12CCN(c1ccccc1NS(=O)(=O)c1ccc(S(=O)(=O)N(C)C)cc1)CC2 (stereo not shown) [Compound A-281, N4-{2-[1-(dimethylamino)-8-azaspiro[4.5]decan-8-yl]phenyl}-N1,N1-dimethylbenzene-1,4-disulfonamide], which AC50 is on record?
Answer: ≥ 10 µM

Question: How did the AC50 turn out when CN1C(=O)C2(CCN(c3ccccc3NS(=O)(=O)c3ccc(S(=O)(=O)N(C)C)cc3)CC2)c2cccnc21 [Compound A-282, N1,N1-dimethyl-N4-(2-{1′-methyl-2′-oxo-1′,2′-dihydrospiro[piperidine-4,3′-pyrrolo[2,3-b]pyridin]-1-yl}phenyl)benzene-1,4-disulfonamide] was run?
Answer: 2.01 to 8 µM

Question: For CN(C)S(=O)(=O)c1ccc(S(=O)(=O)Nc2ccccc2N2CCN(c3ccc(Cl)cc3F)CC2=O)cc1 [Compound A-283, N4-{2-[4-(4-chloro-2-fluorophenyl)-2-oxopiperazin-1-yl]phenyl}-N1,N1-dimethylbenzene-1,4-disulfonamide], which AC50 is on record?
Answer: ≥ 10 µM

Question: For CP(C)(=O)c1ccc(S(=O)(=O)Nc2cc(Cl)ccc2N2CCOCC2)cc1 [Compound A-284, N-[5-chloro-2-(morpholin-4-yl)phenyl]-4-(dimethylphosphoryl)benzene-1-sulfonamide], which AC50 is on record?
Answer: ≥ 10 µM

Question: For CN(C)S(=O)(=O)c1ccc(S(=O)(=O)N(C)c2cc(Cl)ccc2N2CCOCC2)cc1 [Compound A-285, N1-[5-chloro-2-(morpholin-4-yl)phenyl]-N1,N4,N4-trimethylbenzene-1,4-disulfonamide], which AC50 is on record?
Answer: ≥ 10 µM

Question: CN(C)S(=O)(=O)c1ccc(S(=O)(=O)N(C)c2cccc(Cl)c2N2CCOCC2)cc1 [Compound A-286, N1-[3-chloro-2-(morpholin-4-yl)phenyl]-N1,N4,N4-trimethylbenzene-1,4-disulfonamide] was tested. Which AC50 did it give?
Answer: ≥ 10 µM

Question: For CP(C)(=O)c1ccc(S(=O)(=O)Nc2cccc(Cl)c2N2CCOCC2)cc1 [Compound A-287, N-[3-chloro-2-(morpholin-4-yl)phenyl]-4-(dimethylphosphoryl)benzene-1-sulfonamide], which AC50 is on record?
Answer: ≥ 10 µM

Question: Which AC50 does the source give for O=S(=O)(Nc1cccc(Cl)c1N1CCN(c2ccc(Cl)cc2F)CC1)c1ccc2c(c1)CCC2 [Compound A-288, N-{3-chloro-2-[4-(4-chloro-2-fluorophenyl)piperazin-1-yl]phenyl}-2,3-dihydro-1H-indene-5-sulfonamide] here?
Answer: ≤ 2 µM

Question: With CCN1CCN(c2ccc(Cl)cc2NS(=O)(=O)c2ccc3c(c2)CCC3)CC1 [Compound A-289, N-[5-chloro-2-(4-ethylpiperazin-1-yl)phenyl]-2,3-dihydro-1H-indene-5-sulfonamide] as the compound, how does the AC50 read?
Answer: ≥ 10 µM

Question: For CN(C)S(=O)(=O)c1ccc(S(=O)(=O)Nc2cc(Cl)ccc2N2CCOCC2)cc1 [Compound A-290, N4-[5-chloro-2-(morpholin-4-yl)phenyl]-N1,N1-dimethylbenzene-1,4-disulfonamide], which AC50 is on record?
Answer: ≥ 10 µM

Question: With O=S(=O)(Nc1cc(Cl)ccc1N1CCN(c2ccc(Cl)cc2F)CC1)c1ccc2c(c1)CCC2 [Compound A-291, N-{5-chloro-2-[4-(4-chloro-2-fluorophenyl)piperazin-1-yl]phenyl}-2,3-dihydro-1H-indene-5-sulfonamide] as the compound, how does the AC50 read?
Answer: ≤ 2 µM

Question: Which AC50 does the source give for O=S(=O)(Nc1cc(Cl)ccc1N1CCC(c2c(F)cccc2F)CC1)c1ccc2c(c1)CCC2 [Compound A-292, N-{5-chloro-2-[4-(2,6-difluorophenyl)piperidin-1-yl]phenyl}-2,3-dihydro-1H-indene-5-sulfonamide] here?
Answer: ≤ 2 µM

Question: With CN1CCC2(CCN(c3ccccc3NS(=O)(=O)c3ccc(S(=O)(=O)N(C)C)cc3)CC2)C1 [Compound A-293, N1,N1-dimethyl-N4-(2-{2-methyl-2,8-diazaspiro[4.5]decan-8-yl}phenyl)benzene-1,4-disulfonamide] as the compound, how does the AC50 read?
Answer: ≥ 10 µM

Question: For CN(C)S(=O)(=O)c1ccc(S(=O)(=O)N2C(=O)N(C3CCN(c4ccc(Cl)cc4F)CC3)C(=O)C2(C)C)cc1 [Compound A-294, 4-({3-[1-(4-chloro-2-fluorophenyl)piperidin-4-yl]-5,5-dimethyl-2,4-dioxoimidazolidin-1-yl}sulfonyl)-N,N-dimethylbenzene-1-sulfonamide], which AC50 is on record?
Answer: ≥ 10 µM

Question: For CN(C)C1CC2(CCN(c3ccccc3NS(=O)(=O)c3ccc(S(=O)(=O)N(C)C)cc3)CC2)c2ccccc21 (stereo not shown) [Compound A-295, N4-{2-[3-(dimethylamino)-2,3-dihydrospiro[indene-1,4′-piperidin]-1′-yl]phenyl}-N1,N1-dimethylbenzene-1,4-disulfonamide], which AC50 is on record?
Answer: 2.01 to 8 µM

Question: For CN(C)S(=O)(=O)c1ccc(S(=O)(=O)Nc2ccccc2N2CC3(CN(c4ccc(Cl)cc4F)C3)C2)cc1 [Compound A-296, N1-(2-(6-(4-chloro-2-fluorophenyl)-2,6-diazaspiro[3.3]heptan-2-yl)phenyl)-N4,N4-dimethylbenzene-1,4-disulfonamide], which AC50 is on record?
Answer: 2.01 to 8 µM

Question: How did the AC50 turn out when O=C1COCCN1c1c(Cl)cccc1NS(=O)(=O)c1ccc2c(c1)CCC2 [Compound A-297, N-[3-chloro-2-(3-oxomorpholin-4-yl)phenyl]-2,3-dihydro-1H-indene-5-sulfonamide] was run?
Answer: ≥ 10 µM

Question: For O=S(=O)(Nc1cccc(Cl)c1N1CCC(c2c(F)cccc2F)CC1)c1ccc2c(c1)CCC2 [Compound A-298, N-{3-chloro-2-[4-(2,6-difluorophenyl)piperidin-1-yl]phenyl}-2,3-dihydro-1H-indene-5-sulfonamide], which AC50 is on record?
Answer: ≤ 2 µM

Question: For CS(=O)(=O)c1ccc(S(=O)(=O)Nc2cc(Cl)ccc2N2CCOCC2)cc1 [Compound A-299, N-[5-chloro-2-(morpholin-4-yl)phenyl]-4-methanesulfonylbenzene-1-sulfonamide], which AC50 is on record?
Answer: ≥ 10 µM

Question: With CCN1CCN(c2c(Cl)cccc2NS(=O)(=O)c2ccc3c(c2)CCC3)CC1 [Compound A-300, N-[3-chloro-2-(4-ethylpiperazin-1-yl)phenyl]-2,3-dihydro-1H-indene-5-sulfonamide hydrochloride] as the compound, how does the AC50 read?
Answer: 2.01 to 8 µM

Question: CN1C(=O)c2cc(F)ccc2C12CCN(c1ccccc1NS(=O)(=O)c1ccc(S(=O)(=O)N(C)C)cc1)CC2 [Compound A-301, N4-(2-{5-fluoro-2-methyl-3-oxo-2,3-dihydrospiro[isoindole-1,4′-piperidin]-1′-yl}phenyl)-N1,N1-dimethylbenzene-1,4-disulfonamide] was tested. Which AC50 did it give?
Answer: ≤ 2 µM

Question: How did the AC50 turn out when CN1CC(c2ccccc2)C2(CCN(c3ccccc3NS(=O)(=O)c3ccc(S(=O)(=O)N(C)C)cc3)CC2)C1 (stereo not shown) [Compound A-302, N1,N1-dimethyl-N4-(2-{2-methyl-4-phenyl-2,8-diazaspiro[4.5]decan-8-yl}phenyl)benzene-1,4-disulfonamide] was run?
Answer: ≥ 10 µM

Question: For CN(C)S(=O)(=O)c1ccc(S(=O)(=O)Nc2ccccc2N2CCC3(CC2)CN(Cc2ccccc2)c2cc(F)ccc23)cc1 [Compound A-304, N4-(2-{1-benzyl-6-fluoro-1,2-dihydrospiro[indole-3,4′-piperidin]-1′-yl}phenyl)-N1,N1-dimethylbenzene-1,4-disulfonamide], which AC50 is on record?
Answer: ≤ 2 µM

Question: CN1CC2(CCC(c3ccccc3NS(=O)(=O)c3ccc(S(=O)(=O)N(C)C)cc3)CC2)c2ccc(F)cc21 (stereo not shown) [Compound A-305, N1-(2-(6′-fluoro-1′-methylspiro[cyclohexane-1,3′-indolin]-4-yl)phenyl)-N4,N4-dimethylbenzene-1,4-disulfonamide] was tested. Which AC50 did it give?
Answer: 2.01 to 8 µM

Question: With Cc1nn(S(=O)(=O)c2ccc(S(=O)(=O)N(C)C)cc2)cc1N1CCN(c2ccc(Cl)cc2F)CC1=O [Compound A-306, 4-({4-[4-(4-chloro-2-fluorophenyl)-2-oxopiperazin-1-yl]-3-methyl-1H-pyrazol-1-yl}sulfonyl)-N,N-dimethylbenzene-1-sulfonamide] as the compound, how does the AC50 read?
Answer: ≥ 10 µM

Question: How did the AC50 turn out when CN1CC2(CCN(c3ccccc3N(C)S(=O)(=O)c3ccc(S(C)(=O)=O)cc3)CC2)c2ccc(F)cc21 [Compound A-307, N-(2-{6-fluoro-1-methyl-1,2-dihydrospiro[indole-3,4′-piperidin]-1′-yl}phenyl)-4-methanesulfonyl-N-methylbenzene-1-sulfonamide] was run?
Answer: 2.01 to 8 µM

Question: For CCOC(=O)N1CCN(c2ccccc2NS(=O)(=O)c2ccc(S(=O)(=O)N(C)C)cc2)CC1 [Compound A-308, ethyl 4-{2-[4-(dimethylsulfamoyl)benzenesulfonamido]phenyl}piperazine-1-carboxylate], which AC50 is on record?
Answer: 2.01 to 8 µM

Question: Which AC50 does the source give for COC(=O)N1CCN(c2ccccc2NS(=O)(=O)c2ccc(S(=O)(=O)N(C)C)cc2)CC1 [Compound A-309, methyl 4-{2-[4-(dimethylsulfamoyl)benzenesulfonamido]phenyl}piperazine-1-carboxylate] here?
Answer: 2.01 to 8 µM

Question: CN1Cc2cc(F)ccc2C12CCN(c1ccccc1NS(=O)(=O)c1ccc(S(=O)(=O)N(C)C)cc1)CC2 [Compound A-310, N4-(2-{5-fluoro-2-methyl-2,3-dihydrospiro[isoindole-1,4′-piperidin]-1′-yl}phenyl)-N1,N1-dimethylbenzene-1,4-disulfonamide; formic acid] was tested. Which AC50 did it give?
Answer: ≤ 2 µM

Question: With CN(C)S(=O)(=O)c1ccc(S(=O)(=O)Nc2cccc(Cl)c2N2CCOCC2)cc1 [Compound A-311, N4-[3-chloro-2-(morpholin-4-yl)phenyl]-N1,N1-dimethylbenzene-1,4-disulfonamide] as the compound, how does the AC50 read?
Answer: 2.01 to 8 µM

Question: CN(C)S(=O)(=O)c1ccc(S(=O)(=O)Cc2cc(Cl)ccc2N2CCOCC2)cc1 [Compound A-312, 4-{[5-chloro-2-(morpholin-4-yl)phenyl]methanesulfonyl}-N,N-dimethylbenzene-1-sulfonamide] was tested. Which AC50 did it give?
Answer: ≥ 10 µM

Question: With O=S(=O)(Nc1cc(Cl)ccc1N1CCC(c2ccc(Cl)cc2F)CC1)c1ccc2c(c1)CCC2 [Compound A-313, N-{5-chloro-2-[4-(4-chloro-2-fluorophenyl)piperidin-1-yl]phenyl}-2,3-dihydro-1H-indene-5-sulfonamide] as the compound, how does the AC50 read?
Answer: ≤ 2 µM
